Results: patent US11291674B2 (CALITHERA BIOSCIENCES, INC., priority 2016, dated 2022)
Where “and” joins values, the source holds several entries; their conditions need not be identical. Equal values may be shown once. Entries after “also recorded” stand apart in the source; their conditions may differ.

Experiments:
Recombinant human Arg2 = biological target: T1, Recombinant human Arg2 (Homo sapiens, UniProt P78540); experiment: Recombinant arginase activity assay, Arg2; format: biochemical; details: mean (SD), N=2, 20 mM L-arginine
T1 construct: Recombinant human arginase 2 (Arg2) comprising amino acids […] was purchased from US Biological; purchased US Biological
T1 sequence (P78540 23-354): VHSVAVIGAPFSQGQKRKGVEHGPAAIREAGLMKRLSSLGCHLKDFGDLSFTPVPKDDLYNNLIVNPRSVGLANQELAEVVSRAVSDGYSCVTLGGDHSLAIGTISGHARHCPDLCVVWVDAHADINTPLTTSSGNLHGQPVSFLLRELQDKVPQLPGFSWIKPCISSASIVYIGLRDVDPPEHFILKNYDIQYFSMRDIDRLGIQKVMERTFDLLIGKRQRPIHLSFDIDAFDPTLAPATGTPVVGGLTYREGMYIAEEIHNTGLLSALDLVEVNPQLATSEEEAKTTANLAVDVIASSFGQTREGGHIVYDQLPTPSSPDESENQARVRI
Source text: Recombinant arginase activity assays. […] Recombinant human arginase 2 (Arg2) comprising amino acids […] was purchased from US Biological (Salem, Mass.).
(§1) Standard deviations are indicated in parentheses. […] N/A=not applicable.

[1] = biological target: T2, Rat cerebellar neuronal NOS (Rattus norvegicus, UniProt P29476); experiment: NOS activity assay, neuronal NOS; format: biochemical; details: 50 μM arginase inhibitor
T2 construct: native rat cerebellar neuronal NOS; tissue Eurofins/Cerep Panlabs (contract laboratory that ran the assay); host or cells: rat cerebellum
Source text: Nitric oxide (NO) synthase (NOS) activity assays.
as §1

CT26 cell line = experiment: Cytotoxicity assay (CellTiterGlo), CT26; format: cell-based, murine; details: 1 mM arginase inhibitor, 72 h
Procedure: (§2) Cytotoxicity assays. […] Cytotoxicity was assayed by the addition of CellTiterGlo reagent according to the manufacturer's instructions (Promega, Madison, Wis.) followed by […] quantification on a Molecular Devices plate reader (Sunnyvale, Calif.).

B16 cell line = experiment: Cytotoxicity assay (CellTiterGlo), B16; format: cell-based, murine; details: 1 mM arginase inhibitor, 72 h
Procedure: as §2

CT26 tumors = format: in vivo
Source text: Murine tumor studies. Female wild-type C57BL/6 and Balb/c mice (5-6 weeks old) were purchased from Charles River Laboratories (Hollister, Calif.). Severe combined immune deficient (SCID, B6.CB17-PrkdcSCID/SzJ) and Pmel-1 TCR transgenic (B6.Cg-Thyla/Cy Tg(TcraTcrb)8Rest/J) mice (5-6 weeks old) were purchased from The Jackson Laboratory (Bar Harbor, Me.). All mice were housed and treated in accordance with Institutional Animal Care and Use Committee guidelines. For the 4T1 tumor model, 1×10^5 cells were injected orthotopically into the mammary fat pad; for all other tumor models, 1×10^6 cells were injected subcutaneously (s.c.) in the right flank. […] Control groups received vehicle (water) twice daily by gavage. Tumor volume measured by digital caliper (length×width×width/2) and body weight were recorded three times weekly. Animals were euthanized when tumors necrotized or volumes reached 2000 mm^3. Anti-PD-L1 antibody (5 mg/kg, clone 10F.9G2, BioXCell, West Lebanon, N.H.) was injected intraperitoneally (i.p.) on days 5, 7, 9, 11, 13, and 15 for the CT26 model. Gemcitabine (Selleckchem, Houston, Tex.) was dosed 50 mg/kg i.p. on days 10 and 16 for the CT26 model or 60 mg/kg i.p. on days 6 and 10 for the LLC model. For CD8^+ cell depletion, mice were injected i.p. with anti-CD8 antibody (25 mg/kg, clone 2.43, BioXCell) on days −1, 0, +5, and +10. For NK cell depletion, mice were injected i.p. with anti-NK1.1 antibody (25 mg/kg, clone PK136, BioXCell) in the LLC and B16 models or with anti-Asialo GM1 sera (20 μL, Wako Chemicals, Richmond, Va.) in the CT26 model, per the same schedule as anti-CD8.
Tumor dissociation and flow cytometry. […] Excised tumors were placed in RPMI-1640 containing 5% FBS on ice, minced with a razor blade, and dissociated in RPMI-1640 supplemented with mouse tumor dissociation enzymes (Miltenyi Biotec, Bergisch Gladbach, Germany) on a GentleMACS Octo Dissociator With Heat (Miltenyi Biotec) according to the manufacturer's instructions. Dissociated tumors were strained through 70 μm nylon mesh, washed with cold PBS containing 2% FBS, blocked with anti-CD16/CD32 (Fc block antibody, eBioscience), and stained for cell surface antigens. For B16 and 4T1 tumors, washed dissociated tumor cells were incubated with Dead Cell Removal MicroBeads (Miltenyi Biotec) and applied to a magnetic column prior to staining. For intracellular staining, cells were fixed and permeabilized using buffers purchased from R&D Systems or eBioscience for cytoplasmic or nuclear antigens, respectively. All tumor flow experiments were acquired on an Attune N×T flow cytometer and analyzed with FlowJo software version 10 (Ashland, Oreg.), using fluorescence-minus-one controls for gating and single-stained OneComp eBeads (eBioscience) to set compensation matrices.

CT26 lung metastases = experiment: Adoptive NK cell transfer study, CT26 lung metastasis model; format: in vivo, mouse; details: compared to control groups, 14 days
Procedure: Adoptive NK cell transfer studies. Balb/c mice were inoculated i.v. with 1×10^5 CT26 cells. 1×10^6NK cells (isolated from Balb/c spleens the day before injection and incubated with recombinant IL-2 and IL-15 for 18 h) were transferred on the same day as tumor inoculation. The injected NK cells were profiled by flow cytometry to be CD25^+ and 80-90% pure with less than 0.4% T cells.

C[C@H](N)C(=O)N1C[C@H](CCCB(O)O)[C@](N)(C(=O)O)C1 [arginase inhibitor]
IC50 (Recombinant human Arg2): 274 nM and 296 nM | Inhibition of neuronal NOS [1]: No inhibition | Growth inhibition of CT26 cell line (CT26 cell line): No growth inhibition | Growth inhibition of B16 cell line (B16 cell line): No growth inhibition | Tumor growth, single agent (CT26 tumors; 100 mg/kg BID PO): significantly inhibited the growth; also recorded: reduced | Tumor-infiltrating activated CD25+ CD8+ cytotoxic T cells vs vehicle (CT26 tumors; 100 mg/kg BID, study day 14, flow cytometry): increase | Efficacy after depletion of either CD8+ cells or NK cells (CT26 tumors; 100 mg/kg twice daily, depleting antibodies): blocked the efficacy | Tumor growth inhibition, combination with anti-PD-L1 (CT26 tumors; arginase inhibitor 100 mg/kg BID plus anti-PD-L1 5 mg/kg i.p., vs monotherapies): enhanced | Survival at study day 46, combination with anti-PD-L1 (CT26 tumors; arginase inhibitor plus anti-PD-L1): 90% | Complete responses, combination with anti-PD-L1 (CT26 tumors; arginase inhibitor plus anti-PD-L1, N=10 per group): six | Tumor growth inhibition, combination with gemcitabine (CT26 tumors; gemcitabine 50 mg/kg i.p. days 10 and 16): significant increase in tumor growth inhibition | Lung metastases, combination with NK cells (CT26 lung metastases): significantly fewer lung metastases
